system: HIV-1 (H9IIIB strain); experiment: Cell-Based HIV Infection Assay Using a Reporter (MT4-GFP cells); details: Human immunodeficiency virus 1, inflection point (IP) of viral growth inhibition; MT4-GFP cells infected with HIV-1 H9IIIB; 50% normal human serum; mean of at least two independent experiments; read-out: Cell Based IP (50% NHS)
How it was run: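 Inflection point from a 4-parameter curve of % viral growth inhibition, normalised to DMSO and triple-drug controls, using the 48 h/24 h ratio of GFP-positive cells (R0). MT4-GFP cells pre-infected 24 h with HIV-1 H9IIIB at low MOI; compounds tested in 50% normal human serum, 0.4% DMSO; mean of ≥2 experiments.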

Compound | EC50 [nM]
CC(C)Oc1ncc([C@H](c2ccc(Cl)cc2)[C@H](N)C(=O)Nc2cccc(F)c2CC[C@H]2CN[C@@H]3CCCS(=O)(=O)N2C3)cn1 [Example 247, (βS)-4-chloro-N-(2-{2-[(6R,9S)-2,2-dioxido-2-thia-1,7-diazabicyclo[4.3.1]dec-9-yl]ethyl}-3-fluorophenyl)-β-[2-(1-methylethoxy)pyrimidin-5-yl]-L-phenylalaninamide] | 7.2
CCO[C@H]1CC[C@H](C(c2ccc(Cl)c(F)c2)[C@H](N)C(=O)Nc2cccc(F)c2CC[C@H]2CN[C@@H]3CCCS(=O)(=O)N2C3)CC1 (stereo partly drawn) [Example 248, (βR).4-chloro-N-(2-{2-[(6R,9S)-2,2-dioxido-2-thia-1,7-diazabicyclo[4.3.1]dec-9-yl]ethyl}-3-fluorophenyl)-β-[(1r,4R)-4-ethoxycyclohexyl]-3-fluoro-L-phenylalaninamide] | 5.5
N[C@H](C(=O)Nc1cccc(F)c1CC[C@H]1CN[C@@H]2CCCS(=O)(=O)N1C2)[C@H](c1cnc(C(F)(F)F)nc1)c1ccc(Cl)c(F)c1 [Example 249, (βS)-4-chloro-N-(2-{2-[(6R,9S)-2,2-dioxido-2-thia-1,7-diazabicyclo[4.3.1]dec-9-yl]ethyl}-3-fluorophenyl)-3-fluoro-β-[2-(trifluoromethyl)pyrimidin-5-yl]-L-phenylalaninamide] | 5.1
CC(C)O[C@H]1CC[C@H]([C@H](c2ccc(Cl)cc2)[C@H](N)C(=O)Nc2cncc(F)c2CC[C@H]2CN[C@@H]3CCCS(=O)(=O)N2C3)CC1 [Example 250, (βR)-4-chloro-N-(4-{2-[(6R,9S)-2,2-dioxido-2-thia-1,7-diazabicyclo[4.3.1]dec-9-yl]ethyl}-5-fluoropyridin-3-yl)-β-[(1r,4R)-4-(1-methylethoxy)cyclohexyl]-L-phenylalaninamide] | 7.7
N[C@H](C(=O)Nc1cccc(F)c1CC[C@H]1CN[C@@H]2CCCS(=O)(=O)N1C2)[C@@H](c1ccc(Cl)cc1)c1csc(C(F)(F)F)n1 [Example 251, (βR)-4-chloro-N-(2-{2-[(6R,9S)-2,2-dioxido-2-thia-1,7-diazabicyclo[4.3.1]dec-9-yl]ethyl}-3-fluorophenyl)-β-[2-(trifluoromethyl)-1,3-thiazol-4-yl]-L-phenylalaninamide] | 9.2
COC(=O)N[C@H](C(=O)Nc1cccc(F)c1CC[C@H]1CN[C@@H]2CCCS(=O)(=O)N1C2)[C@@H](c1ccc(Cl)cc1)c1csc(C(F)(F)F)n1 [Example 252, methyl {(1S,2R)-2-(4-chlorophenyl)-1-[(2-{2-[(6R,9S)-2,2-dioxido-2-thia-1,7-diazabicyclo[4.3.1]dec-9-yl]ethyl}-3-fluorophenyl)carbamoyl]-2-[2-(trifluoromethyl)-1,3-thiazol-4-yl]ethyl}carbamate] | 17
CCO[C@H]1CC[C@H]([C@H](c2ccc(Cl)c(F)c2)[C@H](N)C(=O)Nc2cncc(F)c2CC[C@H]2CN[C@@H]3CCCS(=O)(=O)N2C3)CC1 [Example 253, (βR)-4-chloro-N-(4-{2-[(6R,9S)-2,2-dioxido-2-thia-1,7-diazabicyclo[4.3.1]dec-9-yl]ethyl}-5-fluoropyridin-3-yl)-β-[(1r,4R)-4-ethoxycyclohexyl]-3-fluoro-L-phenylalaninamide] | 5.8
COC[C@H]1CC[C@H]([C@H](c2ccc(Cl)cc2)[C@H](N)C(=O)Nc2cncc(F)c2CC[C@H]2CN[C@@H]3CCCS(=O)(=O)N2C3)CC1 [Example 254, (βR)-4-chloro-N-(4-{2-[(6R,9S)-2,2-dioxido-2-thia-1,7-diazabicyclo[4.3.1]dec-9-yl]ethyl}-5-fluoropyridin-3-yl)-β-[(1r,4R)-4-(methoxymethyl)cyclohexyl]-L-phenylalaninamide] | 3
CCOC(=O)N1CCC(c2ccc(Cl)cc2)([C@H](NC(=O)OC)C(=O)Nc2cccc(F)c2CC[C@H]2CN[C@@H]3CCCS(=O)(=O)N2C3)CC1 [Example 255, ethyl 4-(4-chlorophenyl)-4-{(1S)-2-[(2-{2-[(6R,9S)-2,2-dioxido-2-thia-1,7-diazabicyclo[4.3.1]dec-9-yl]ethyl}-3-fluorophenyl)amino]-1-[(methoxycarbonyl)amino]-2-oxoethyl}piperidine-1-carboxylate] | 18
COC(=O)N[C@H](C(=O)Nc1cncc(F)c1CC[C@H]1CN[C@@H]2CCCS(=O)(=O)N1C2)[C@@H](c1ccc(Cl)cc1)[C@H]1CC[C@H](C(F)(F)F)CC1 [Example 256, methyl {(1S,2R)-2-(4-chlorophenyl)-1-[(4-{2-[(6R,9S)-2,2-dioxido-2-thia-1,7-diazabicyclo[4.3.1]dec-9-yl]ethyl}-5-fluoropyridin-3-yl)carbamoyl]-2-[(1r,4R)-4-(trifluoromethyl)cyclohexyl]ethyl}carbamate] | 8.2
COC(=O)N[C@H](C(=O)Nc1cccc(F)c1CC[C@H]1CN[C@@H]2CCCS(=O)(=O)N1C2)[C@@H](c1ccc(Cl)cc1)[C@H]1CC[C@H](OC2CC2)CC1 [Example 257, methyl {(1S,2R)-2-(4-chlorophenyl)-2-[(1r,4R)-4-(cyclopropyloxy)cyclohexyl]-1-[(2-{2-[(6R,9S)-2,2-dioxido-2-thia-1,7-diazabicyclo[4.3.1]dec-9-yl]ethyl}-3-fluorophenyl)carbamoyl]ethyl}carbamate] | 5.6
CCOC[C@H]1CC[C@H]([C@H](c2ccc(Cl)cc2)[C@H](N)C(=O)Nc2cncc(F)c2CC[C@H]2CN[C@@H]3CCCS(=O)(=O)N2C3)CC1 [Example 258, (βR)-4-chloro-N-(4-{2-[(6R,9S)-2,2-dioxido-2-thia-1,7-diazabicyclo[4.3.1]dec-9-yl]ethyl}-5-fluoropyridin-3-yl)-β-[(1r,4R)-4-(ethoxymethyl)cyclohexyl]-L-phenylalaninamide] | 3.4
CC(C)Oc1cnc([C@H](c2ccc(Cl)cc2)[C@H](N)C(=O)Nc2cccc(F)c2CC[C@H]2CN[C@@H]3CCCS(=O)(=O)N2C3)cn1 [Example 259, (βR)-4-chloro-N-(2-{2-[(6R,9S)-2,2-dioxido-2-thia-1,7-diazabicyclo[4.3.1]dec-9-yl]ethyl}-3-fluorophenyl)-β-[5-(1-methylethoxy)pyrazin-2-yl]-L-phenylalaninamide] | 4.2
Cn1nc([C@H](c2ccc(Cl)cc2)[C@H](N)C(=O)Nc2cccc(F)c2CC[C@H]2CN[C@@H]3CCCS(=O)(=O)N2C3)cc1C(F)(F)F [Example 260, (βR)-4-chloro-N-(2-{2-[(6R,9S)-2,2-dioxido-2-thia-1,7-diazabicyclo[4.3.1]dec-9-yl]ethyl}-3-fluorophenyl)-β-[1-methyl-5-(trifluoromethyl)-1H-pyrazol-3-yl]-L-phenylalaninamide] | 4.4
Cn1nc(C(F)(F)F)cc1[C@H](c1ccc(Cl)cc1)[C@H](N)C(=O)Nc1cccc(F)c1CC[C@H]1CN[C@@H]2CCCS(=O)(=O)N1C2 [Example 261, (βR)-4-chloro-N-(2-{2-[(6R,9S)-2,2-dioxido-2-thia-1,7-diazabicyclo[4.3.1]dec-9-yl]ethyl}-3-fluorophenyl)-β-[1-methyl-3-(trifluoromethyl)-1H-pyrazol-5-yl]-L-phenylalaninamide] | 8.7
Cn1nc(C(F)(F)F)cc1[C@H](c1ccc(Cl)cc1)[C@H](N)C(=O)Nc1cncc(F)c1CC[C@H]1CN[C@@H]2CCCS(=O)(=O)N1C2 [Example 262, (βR)-4-chloro-N-(4-{2-[(6R,9S)-2,2-dioxido-2-thia-1,7-diazabicyclo[4.3.1]dec-9-yl]ethyl}-5-fluoropyridin-3-yl)-β-[1-methyl-3-(trifluoromethyl)-1H-pyrazol-5-yl]-L-phenylalaninamide] | 22
CC(C)Oc1cnc([C@H](c2ccc(Cl)cc2)[C@H](N)C(=O)Nc2cncc(F)c2CC[C@H]2CN[C@@H]3CCCS(=O)(=O)N2C3)cn1 [Example 263, (βR)-4-chloro-N-(4-{2-[(6R,9S)-2,2-dioxido-2-thia-1,7-diazabicyclo[4.3.1]dec-9-yl]ethyl}-5-fluoropyridin-3-yl)-β-[5-(1-methylethoxy)pyrazin-2-yl]-L-phenylalaninamide] | 5.2
N[C@H](C(=O)Nc1cccc(F)c1CC[C@H]1CN[C@@H]2CCCS(=O)(=O)N1C2)[C@@H](c1ccc(Cl)cc1)c1nc(C(F)(F)F)cs1 [Example 264, (βR)-4-chloro-N-(2-{2-[(6R,9S)-2,2-dioxido-2-thia-1,7-diazabicyclo[4.3.1]dec-9-yl]ethyl}-3-fluorophenyl)-β-[4-(trifluoromethyl)-1,3-thiazol-2-yl]-L-phenylalaninamide] | 6.9
Cn1nc([C@H](c2ccc(Cl)c(F)c2)[C@H](N)C(=O)Nc2cccc(F)c2CC[C@H]2CN[C@@H]3CCCS(=O)(=O)N2C3)cc1C(F)(F)F [Example 265, (βR)-4-chloro-N-(2-{2-[(6R,9S)-2,2-dioxido-2-thia-1,7-diazabicyclo[4.3.1]dec-9-yl]ethyl}-3-fluorophenyl)-3-fluoro-β-[1-methyl-5-(trifluoromethyl)-1H-pyrazol-3-yl]-L-phenylalaninamide] | 9.8
Cn1nc([C@H](c2ccc(Cl)c(F)c2)[C@H](N)C(=O)Nc2cncc(F)c2CC[C@H]2CN[C@@H]3CCCS(=O)(=O)N2C3)cc1C(F)(F)F [Example 266, (βR)-4-chloro-N-(4-{2-[(6R,9S)-2,2-dioxido-2-thia-1,7-diazabicyclo[4.3.1]dec-9-yl]ethyl}-5-fluoropyridin-3-yl)-3-fluoro-β-[1-methyl-5-(trifluoromethyl)-1H-pyrazol-3-yl]-L-phenylalaninamide] | 11
Cn1nc(C(F)(F)F)cc1[C@H](c1ccc(Cl)c(F)c1)[C@H](N)C(=O)Nc1cccc(F)c1CC[C@H]1CN[C@@H]2CCCS(=O)(=O)N1C2 [Example 267, (βR)-4-chloro-N-(2-{2-[(6R,9S)-2,2-dioxido-2-thia-1,7-diazabicyclo[4.3.1]dec-9-yl]ethyl}-3-fluorophenyl)-3-fluoro-β-[1-methyl-3-(trifluoromethyl)-1H-pyrazol-5-yl]-L-phenylalaninamide] | 8
